Where two headings read alike, the source gives them in different places.
Assays:
[1] = @ 25° C., experimental; cited from earlier work
[2] = cited from earlier work
[3] = Aim 1: breath kinetics and dose-response after sublingual solutions (SAW); format: in vivo, human
Experimental: Dose-response relationships were determined in four study participants following sublingual administration of solutions containing D-limonene and methyl salicylate. […] Five seconds after administration of the solution, the participant would blow a single five second breath into the SAW sensor. […] The participant kept his or her mouth closed when not providing a sample and refrained from breathing through the mouth or talking during the collection period. In addition, the more promising solutions (7, 12 and 16) were tested in triplicate to estimate reproducibility within individuals.

[4] = D-limonene recovery from placebo SL powder by LCMS (stability); format: physicochemical
Experimental: Three replicate 30 mg portions of this powder were removed immediately after preparation and extracted with acetonitrile to recover the D-limonene. The extracts were analyzed by liquid chromatography-mass spectrometry (LCMS). This was repeated with three more portions after four hours and again after eight hours (FIG. 26).

[5] = cited from earlier work; remark: listed apart in the source
[6] = Breath 2-butanone after ingestion of food or 2-butanol taggant; conditions: foods: two servings; 2-butanol taggant: 40 mg ingested, n=7
Experimental: To assess the interference produced by food, 6 subjects rapidly consumed (<5 min) two servings (≈16 fl. Oz) of yogurt or 2 servings (≈60 g) of cheddar cheese and breath samples were collected for 60 min after ingestion.

[7] = octanol-water coefficient; cited from earlier work
[8] = Oral vanillin detection by direct breath LCMS (OrbiTrap); format: in vivo, human; conditions: 30 μg vanillin in 10 μL neat ethanol on tongue
Text: In the lower panel of FIG. 14, note how an internal standard (semi-volatile organic acid) stays constant for each of the six breaths.

[9] = dose that can be taken for remainder of life without regulatory concern

CC(C)[C@@H]1CC[C@@H](C)C[C@H]1O (racemic) [DL-menthol]
VP (vapor pressure) [1]: 0.0637 @ 25 °C mmHg
Water Sol ([2]; @ 25° C.): 456 @ 25 °C mg/L

C=C(C)[C@H]1CC=C(C)CC1 [D-limonene, 4-isopropenyl-1-methylcyclohexene]
breath concentration measured at 5 seconds lost by 50 seconds ([3]; human, in vivo): 78%
time course of flavorant concentration in exhaled breath ([3]; in vivo): decayed exponentially over time
D-limonene dose recovered from SL powder ([4]; at eight hours): 11%
D-limonene dose recovered from SL powder ([4]; at four hours): 22%
D-limonene dose recovered from SL powder ([4]; just after preparation): Approximately 65%

CCC(C)O (stereo not drawn) [Formulation 2-butanol, 2-butanol]
permissible daily exposure (PDE) [5, 9]: 300 mg/day
permissible daily exposure (PDE) ([5]; orally): 300 mg orally per day
Maximum 2-butanone (Cmax) in breath [6]: ≈ 549 ppb
Tmax of 2-butanone in breath [6]: 6.7 ± 0.6 min

CCCC(C)=O [Formulation 2-pentanone, 2-pentanone]
permissible daily exposure (PDE) [5, 9]: 250 mg/day
permissible daily exposure (PDE) ([5]; orally): 250 mg orally per day

C=C(C)[C@@H]1CC=C(C)C(=O)C1 [L-carvone]
log P [7]: 2.71
VP (vapor pressure) [1]: 0.103 @ 25 °C mmHg
Water Sol ([2]; @ 25° C.): 1,310 @ 25 °C mg/L

CCO [ethanol, reference compound]
permissible daily exposure (PDE) ([5]; orally): 166.7 mg orally per day

COC(=O)c1ccccc1N [methyl anthranilate]
log P [7]: 1.88
Water Sol ([2]; @ 25° C.): 2,850 @ 25 °C mg/L

COC(=O)c1ccccc1O [methyl salicylate, methyl-2-hydroxybenzoate]
time course of flavorant concentration in exhaled breath ([3]; after a single SL administration): decayed exponentially over time
breath concentration measured at 5 seconds lost by 50 seconds ([3]; single SL administration, average): 50%
log P [7]: 2.55
VP (vapor pressure) [1]: 0.0343 @ 25 °C mmHg
Water Sol ([2]; @ 30° C.): 700 @ 30 °C mg/L

CC(C)c1cccc(C(C)C)c1O [propofol, reference compound]
VP (vapor pressure) [1]: 0.00305 @ 25 °C mmHg
Water Sol ([2]; @ 25° C.): 124 @ 25 °C mg/L

COc1cc(C=O)ccc1O [vanillin, 4-hydroxy-3-methoxybenzaldehyde]
persistence in human breath [8]: 2 min
persistence in human breath ([8]; listed as Vanillin): ≈ 2 min
VP (vapor pressure) [1]: 1.18E-04 @ 25 °C mmHg
Water Sol ([2]; @ 25° C.): 11,000 @ 25 °C mg/L

Source: patent US20140341983A1, “SMART™ SOLID ORAL DOSAGE FORMS” (priority 2011, published 2014)
